Activity calls are given as the source filed them.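 Rule for the calls: active = compound that lowers cell viability with a fitted AC50 at most twice its highest valid tested dose; inconclusive = flat curve with 30 to 70% loss, or poor fit; inactive = the rest.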
system: HEK293T viability, ATP luminescence CellTiter-Glo, 72 h; test: viability loss in HEK293 cells – cell-based, luminescence, dry powder, set 13, cytotoxicity control, dose response (AID 743353); conditions: not given

SMILES	AC50
CC(=O)c1ccc(N2CCN(C(=O)c3ccc4c(c3)OC(C)(C)O4)CC2)cc1	> 52 µM (inactive)
O=C(c1ccc2c(c1)OCO2)N1CCN(c2ccc(S(=O)(=O)C(F)(F)F)cc2)CC1	> 52 µM (inactive)
CC(=O)c1ccc(N2CCN(C(=O)c3cc4c(cc3C)OCO4)CC2)cc1	> 52 µM (inactive)

system: not listed separately; test: as above; conditions: HEK293T viability, ATP luminescence CellTiter-Glo, 72 h; at 26 µM (top of the series)

SMILES	activity change, negative = cytotoxicity
CC(=O)c1ccc(N2CCN(C(=O)Nc3ccc4c(c3)OCO4)CC2)cc1	-0.537% (inactive)
CC(=O)c1ccc(N2CCCN(C(=O)c3ccc4c(c3)OCO4)CC2)cc1	0.038% (inactive)
O=C(c1ccc2c(c1)OCO2)N1CCN(c2ccc(S(=O)(=O)C(F)F)cc2)CC1	-6.54% (inactive)
CC(=O)c1ccc(N2CCN(C(=O)c3ccc4c(c3)OC(F)(F)O4)CC2)cc1	-14.8% (inactive)
CC(=O)c1ccc(N2CCN(C(=O)c3ccc4c(c3C)OCO4)CC2)cc1	-17% (inactive)
CC(=O)c1ccc(N2CCN(C(=O)c3cc4c(cn3)OCO4)CC2)cc1	-11.9% (inactive)
CN(C)S(=O)(=O)c1ccc(N2CCN(C(=O)c3ccc4c(c3)OCO4)CC2)cc1	-16.1% (inactive)
CC(=O)c1ccc(N2CCN(C(=O)c3cc4c(cc3Cl)OCO4)CC2)cc1	-7.51% (inactive)
CC(=O)c1ccc(N2CCN(S(=O)(=O)c3ccc4c(c3)OCO4)CC2)cc1	-12.5% (inactive)
CS(=O)(=O)c1ccc(N2CCN(C(=O)c3ccc4c(c3)OCO4)CC2)cc1	3.29% (inactive)
COc1cc2c(cc1C(=O)N1CCN(c3ccc(C(C)=O)cc3)CC1)OCO2	-3.95% (inactive)
CC(=O)c1ccc(N2CC3CC2CN3C(=O)c2ccc3c(c2)OCO3)cc1 (stereo unspecified)	4.9% (inactive)
COc1ccc(C(=O)N2CCN(c3ccc(C(C)=O)cc3)CC2)cc1OC	-1.09% (inactive)
N#Cc1ccc(N2CCN(C(=O)c3ccc4c(c3)OCO4)CC2)cc1	-2.51% (inactive)
CC(=O)c1ccc(N2CCN(C(=O)c3ccc4c(c3)OCO4)CC2)cc1	-2.01% (inactive)
CC(=O)c1ccc(N2CCN(C(=O)c3cccc4c3OCO4)CC2)cc1	0.216% (inactive)
O=C(c1ccc2c(c1)OCO2)N1CCN(c2ccc(C(F)(F)F)cc2)CC1	-8.83% (inactive)
COc1cc(C(=O)N2CCN(c3ccc(C(C)=O)cc3)CC2)cc2c1OCO2	-13.3% (inactive)
CC(=O)c1ccc(N2CCN(C(=O)c3ccc(Cl)c(Cl)c3)CC2)cc1	-9.71% (inactive)
CC(=O)c1ccc(N2CCN(C(=O)c3cc(Cl)c4c(c3)OCO4)CC2)cc1	-6.52% (inactive)
CC(=O)c1ccc(N2CCN(C(=O)c3ccc4snnc4c3)CC2)cc1	-9.09% (inactive)
CC(=O)c1ccc(N2CCN(C(=O)c3ccc4ocnc4c3)CC2)cc1	-8.67% (inactive)
O=C(c1ccc2c(c1)OCO2)N1CCN(c2ccc(OC(F)(F)F)cc2)CC1	-10.3% (inactive)

Source: PubChem BioAssay AID743353 (Broad Institute, 2014)
